# Laboratory results reported in US10166289B2, “Compositions including beta-glucans and method of use” (BIOTHERA, INC., priority 2011, dated 2019).
# What was measured:
# [1] = tested on: human neutrophils, monocytes, B-cells, and monocyte-derived dendritic cells; test: Binding of soluble β-glucan to immune cells, flow cytometry with glucan specific Ab BFD IV; type: cell-based; conditions: for binding to immune cells: human neutrophils, monocytes, monocyte-derived dendritic cells
# Experimental: Monocyte-derived dendritic cells (MoDCs) were prepared from blood obtained from healthy volunteers as described in Peters et al. (Advances in Experimental Medicine and Biology; 329:275-280; 1993). At day 7, the MoDCs were resuspended in RPMI 1640 supplemented with 10% human serum (Sigma-Aldrich, St. Louis, Mo.). PBMCs were obtained from healthy volunteers and similarly resuspended in RPMI 1640 supplemented with 10% human serum. The MoDCs and PBMCs were treated with vehicle alone or with IMPRIME (Biothera, Eagan, Minn.) at 100 μg/mL, 200 μg/mL, or 400 μg/mL for two hours. Binding of IMPRIME was assessed by flow cytometric analysis with a glucan specific Ab BFD IV (U.S. Pat. No. 6,084,092).
# [2] = tested on: B cells (CD19+) in PBMCs; test: Modulation of TLR 7/8 agonist CL097-induced B cell proliferation (CFSE dilution, FACS); type: cell-based; conditions: 2 μM CL097 with 50 μg/mL IMPRIME PGG, five days, 10% human serum
# Experimental: (§1) TLR activation of B cells induces cellular proliferation that can be measured by a reduction in the staining intensity of the intracellular dye, carboxyfluorescein succinimidyl ester (CFSE, Invitrogen, Life Technologies Corp., Carlsbad, Calif.). The principle behind this technique is that as a cell divides the CFSE dye is diluted in half between the daughter cells after each division.
# (§2) PBMCs obtained from healthy volunteers were treated with 2 μM CL097 (InvivoGen, San Diego, Calif.) in the presence or absence of 50 μg/mL IMPRIME PGG (Biothera, Eagan, Minn.) and cultured over five days in media containing 10% fresh human serum (Sigma-Aldrich, St. Louis, Mo.). The cells were stained with an anti-CD19 antibody (BioLegend, Inc., San Diego, Calif.) to identify the B cell subset in the PBMC mixture and intensity of CFSE staining was measured my FACS analysis (BD Biosciences, San Jose, Calif.).
# [3] = tested on: B cells (CD19+) in PBMCs; test: Modulation of TLR 9 agonist CpG 2006-induced B cell proliferation (CFSE dilution, FACS); type: cell-based; conditions: 100 nM CpG 2006 with 50 μg/mL IMPRIME PGG, five days, 10% human serum
# Experimental: as §1
# as §2, with “100 nM CpG 2006” for “2 μM CL097”
# [4] = tested on: monocytes (CD14+) in PBMCs; test: Modulation of TLR 4 agonist LPS-induced co-stimulatory marker CD40 expression by monocytes (FACS); type: cell-based, human
# Experimental: PBMCs obtained from healthy volunteers were treated with 25 ng/mL LPS (InvivoGen, San Diego, Calif.) either concurrently with noted doses of IMPRIME PGG (Biothera, Eagan, Minn.) or after cells were pretreated overnight with IMPRIME PGG. The cells were cultured over five days in media containing 10% fresh human serum and then stained with an anti-CD14 antibody (BioLegend, Inc., San Diego, Calif.) to identify the monocyte subset in the PBMC mixture and an anti-CD40 antibody (BioLegend, Inc., San Diego, Calif.) to evaluate CD40 expression by FACS analysis (BD Biosciences, San Jose, Calif.).
# [5] = tested on: systemic pro-inflammatory cytokines; test: Induction of systemic pro-inflammatory cytokines
Substance,binding to immune cells [1],receptors through which immune cell subsets are bound ([1]; neutrophils and monocytes),B cell proliferation compared to PBMCs treated with only the TLR agonist [2],B cell proliferation compared to PBMCs treated with only the TLR agonist [3],CD40 expression effect with pre-incubation ([4]; PBMCs pre-incubated overnight with IMPRIME PGG before 25 ng/mL LPS),"CD40 expression compared to treating the PBMCs with only the TLR agonist ([4]; PBMCs, 25 ng/mL LPS concurrently with IMPRIME PGG, five days)",induction of systemic pro-inflammatory cytokines [5]
laminarin [reference compound],can bind,–,–,–,–,–,–
"β(1,6)-[poly-1,3)-D-glucopyranosyl]-poly-β(1,3)-D-glucopyranose [IMPRIME PGG]",can bind,"through complement binding receptors (CR2 on B-cells; CR3 on neutrophils and monocytes), not a TLR",increases B cell proliferation,increases B cell proliferation,magnified,an increase in CD40 expression,do not appear to induce systemic pro-inflammatory cytokines
